According to PMC9250534, “Synthesis and direct assay of large macrocycle diversities by combinatorial late-stage modification at picomole scale” (Nature Communications, 2022):
One block for each molecule: values may come before it. Numbered stars: 1 amine (or outer) side, 2 acyl side, 3 side chain; on linkers, the order of the positions; unused ones are H or OH. Bridge positions count the residues as written; N and C are the ends. Square brackets hold non-standard residues; d marks the D form. Peptide text beside a SMILES is read from it. * marks the point of attachment. ξ: configuration not given here. Pro(cis-4-NH-(E)-Cinnamoyl) = O=C(/C=C/c1ccccc1)N[C@@H]1CN[C@H](C(=O)O)C1; ξPro(4-NHCO(5-Cl-2-thienyl)) = O=C(NC1CNC(C(=O)O)C1)c1ccc(Cl)s1; ξPro(4ξ-NHCOC6H4-4-Cl) = O=C(NC1CNC(C(=O)O)C1)c1ccc(Cl)cc1; 2Thenoyl(5-Cl) = O=C(c1ccc(Cl)s1)*; Benzoyl(4-Cl) = O=C(c1ccc(Cl)cc1)*; Cysteamide = C(CS[*:3])N[*:1]; X1 = O=C(/C=C/c1ccccc1)*; Dap = NC[C@H](N)C(=O)O; Mpa = O=C(O)CCS

Molecular target: MDM2 (Homo sapiens, UniProt Q00987)
Sequence (Q00987 whole entry): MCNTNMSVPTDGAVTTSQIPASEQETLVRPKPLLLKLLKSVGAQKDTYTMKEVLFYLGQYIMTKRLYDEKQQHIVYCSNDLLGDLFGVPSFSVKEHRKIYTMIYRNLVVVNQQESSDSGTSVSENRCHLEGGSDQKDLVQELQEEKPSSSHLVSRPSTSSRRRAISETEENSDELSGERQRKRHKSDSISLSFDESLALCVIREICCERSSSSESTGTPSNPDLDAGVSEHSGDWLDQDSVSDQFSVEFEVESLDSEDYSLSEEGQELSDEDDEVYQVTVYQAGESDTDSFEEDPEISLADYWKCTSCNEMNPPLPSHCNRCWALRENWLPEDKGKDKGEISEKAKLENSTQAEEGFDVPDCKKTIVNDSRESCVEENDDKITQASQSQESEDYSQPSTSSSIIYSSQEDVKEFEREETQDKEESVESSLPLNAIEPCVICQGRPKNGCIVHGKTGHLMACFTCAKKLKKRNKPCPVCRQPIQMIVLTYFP
Test: MDM2 binding screen: displacement of fluorescent p53 peptide probe FP53 (fluorescence polarization)
Details: crude macrocycle reactions; for fraction fluorescent probe displaced, Screen: initial screen
In short: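 Macrocycle reaction products at a final 10 µM were tested for displacement of a p53-based fluorescent peptide from human MDM2. Fluorescence anisotropy (ex 485/em 535 nm) was read once per macrocycle at 25 °C.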

fraction fluorescent probe displaced, Screen (Acid 14): 0.08
fraction fluorescent probe displaced, Replicate (Acid 14): 0.12
Structure (SMILES): O=C1CCSSCCNC(=O)[C@H](Cc2c[nH]c3ccccc23)NC(=O)[C@H]2CCCN(C2)C(=O)[C@H](CNC(=O)c2ccc(Cl)s2)N1 [X D3 B4 W Acid 14]

fraction fluorescent probe displaced, Screen (Acid 25): 0.25
fraction fluorescent probe displaced, Replicate (Acid 25): 0.20
Structure (SMILES): O=C1CCSSCCNC(=O)[C@H](Cc2c[nH]c3ccccc23)NC(=O)[C@H]2CCCN(C2)C(=O)[C@H](CNC(=O)c2ccc(Cl)cc2)N1 [X D3 B4 W Acid 25]

fraction fluorescent probe displaced, Screen (Acid 91): 0.11
fraction fluorescent probe displaced, Replicate (Acid 91): 0.09
Structure (SMILES): O=C(C=Cc1ccccc1)NCC1NC(=O)CCSSCCNC(=O)C(Cc2c[nH]c3ccccc23)NC(=O)C2CCCN(C2)C1=O (centres unmarked) [X D3 B4 W Acid 91]

fraction fluorescent probe displaced, Screen (Acid 91): -0.18
fraction fluorescent probe displaced, Replicate (Acid 91): -0.0333
Structure (SMILES): O=C(/C=C/c1ccccc1)NC[C@@H]1NC(=O)CCSSCCNC(=O)[C@H](Cc2ccccc2)NC(=O)c2cccc(c2)CNC1=O [X D3 B5 F Acid 91]

fraction fluorescent probe displaced, Screen (Acid 14): 0.14
fraction fluorescent probe displaced, Replicate (Acid 14): 0.20
Structure (SMILES): O=C1CCSSCCNC(=O)[C@H](Cc2c[nH]c3ccccc23)NC(=O)c2cccc(c2)CNC(=O)[C@H](CNC(=O)c2ccc(Cl)s2)N1 [X D3 B5 W Acid 14]

fraction fluorescent probe displaced, Screen (Acid 25): 0.25
fraction fluorescent probe displaced, Replicate (Acid 25): 0.10
Structure (SMILES): O=C1CCSSCCNC(=O)[C@H](Cc2c[nH]c3ccccc23)NC(=O)c2cccc(c2)CNC(=O)[C@H](CNC(=O)c2ccc(Cl)cc2)N1 [X D3 B5 W Acid 25]

fraction fluorescent probe displaced, Screen (Acid 91): 0.08
fraction fluorescent probe displaced, Replicate (Acid 91): 0.14
Structure (SMILES): O=C(C=Cc1ccccc1)NCC1NC(=O)CCSSCCNC(=O)C(Cc2c[nH]c3ccccc23)NC(=O)c2cccc(c2)CNC1=O (centres unmarked) [X D3 B5 W Acid 91]

fraction fluorescent probe displaced, Screen (Acid 91): -0.05
fraction fluorescent probe displaced, Replicate (Acid 91): -0.06
Structure (SMILES): O=C(/C=C/c1ccccc1)NC[C@@H]1NC(=O)CCSSCCNC(=O)[C@@H]2CCCN2C(=O)[C@H](Cc2ccccc2)NC1=O [X D3 F B1 Acid 91] ([Mpa][Dap](X1)FP-Cysteamide; disulfide 1-C)

fraction fluorescent probe displaced, Screen (Acid 14): 0.053
fraction fluorescent probe displaced, Replicate (Acid 14): 0.10
Structure (SMILES): O=C1CCNC(=O)[C@H](Cc2ccccc2)NC(=O)[C@H](CNC(=O)c2ccc(Cl)s2)NC(=O)CCSSCCN1 [X D3 F B2 Acid 14]

fraction fluorescent probe displaced, Screen (Acid 25): -0.00813
fraction fluorescent probe displaced, Replicate (Acid 25): 0.0211
Structure (SMILES): O=C1CCNC(=O)[C@H](Cc2ccccc2)NC(=O)[C@H](CNC(=O)c2ccc(Cl)cc2)NC(=O)CCSSCCN1 [X D3 F B2 Acid 25]

fraction fluorescent probe displaced, Screen (Acid 91): 0.0563
fraction fluorescent probe displaced, Replicate (Acid 91): -0.0333
Structure (SMILES): O=C(/C=C/c1ccccc1)NC[C@@H]1NC(=O)CCSSCCNC(=O)CCNC(=O)[C@H](Cc2ccccc2)NC1=O [X D3 F B2 Acid 91]

fraction fluorescent probe displaced, Screen (Acid 14): 0.053
fraction fluorescent probe displaced, Replicate (Acid 14): -0.03
Structure (SMILES): O=C1CCSSCCNC(=O)[C@H]2CCCN(C2)C(=O)[C@H](Cc2ccccc2)NC(=O)[C@H](CNC(=O)c2ccc(Cl)s2)N1 [X D3 F B4 Acid 14]

fraction fluorescent probe displaced, Screen (Acid 25): 0.0569
fraction fluorescent probe displaced, Replicate (Acid 25): 0.10
Structure (SMILES): O=C1CCSSCCNC(=O)c2cccc(c2)CNC(=O)C(Cc2ccccc2)NC(=O)C(CNC(=O)c2ccc(Cl)cc2)N1 (centres unmarked) [X D3 F B5 Acid 25]

fraction fluorescent probe displaced, Screen (Acid 14): 0.14
fraction fluorescent probe displaced, Replicate (Acid 14): 0.17
Structure (SMILES): O=C1CCSSCCNC(=O)[C@@H]2CCCN2C(=O)[C@H](Cc2c[nH]c3ccccc23)NC(=O)[C@H](CNC(=O)c2ccc(Cl)s2)N1 [X D3 W B1 Acid 14] ([Mpa][Dap](2Thenoyl(5-Cl))WP-Cysteamide; disulfide 1-C)

fraction fluorescent probe displaced, Screen (Acid 25): 0.12
fraction fluorescent probe displaced, Replicate (Acid 25): 0.22
Structure (SMILES): O=C1CCSSCCNC(=O)[C@@H]2CCCN2C(=O)[C@H](Cc2c[nH]c3ccccc23)NC(=O)[C@H](CNC(=O)c2ccc(Cl)cc2)N1 [X D3 W B1 Acid 25] ([Mpa][Dap](Benzoyl(4-Cl))WP-Cysteamide; disulfide 1-C)

fraction fluorescent probe displaced, Screen (Acid 14): 0.23
fraction fluorescent probe displaced, Replicate (Acid 14): 0.20
Structure (SMILES): O=C1CCNC(=O)[C@H](Cc2c[nH]c3ccccc23)NC(=O)[C@H](CNC(=O)c2ccc(Cl)s2)NC(=O)CCSSCCN1 [X D3 W B2 Acid 14]

fraction fluorescent probe displaced, Screen (Acid 25): 0.15
fraction fluorescent probe displaced, Replicate (Acid 25): 0.20
Structure (SMILES): O=C1CCNC(=O)[C@H](Cc2c[nH]c3ccccc23)NC(=O)[C@H](CNC(=O)c2ccc(Cl)cc2)NC(=O)CCSSCCN1 [X D3 W B2 Acid 25]

fraction fluorescent probe displaced, Screen (Acid 91): 0.19
fraction fluorescent probe displaced, Replicate (Acid 91): 0.0168
Structure (SMILES): O=C(/C=C/c1ccccc1)NC[C@@H]1NC(=O)CCSSCCNC(=O)CCNC(=O)[C@H](Cc2c[nH]c3ccccc23)NC1=O [X D3 W B2 Acid 91]

fraction fluorescent probe displaced, Screen (Acid 14): 0.20
fraction fluorescent probe displaced, Replicate (Acid 14): 0.0465
Structure (SMILES): O=C1CCSSCCNC(=O)[C@H]2CCCN(C2)C(=O)[C@H](Cc2c[nH]c3ccccc23)NC(=O)[C@H](CNC(=O)c2ccc(Cl)s2)N1 [X D3 W B4 Acid 14]

fraction fluorescent probe displaced, Screen (Acid 91): 0.14
fraction fluorescent probe displaced, Replicate (Acid 91): 0.04
Structure (SMILES): O=C(/C=C/c1ccccc1)NC[C@@H]1NC(=O)CCSSCCNC(=O)[C@H]2CCCN(C2)C(=O)[C@H](Cc2c[nH]c3ccccc23)NC1=O [X D3 W B4 Acid 91]

fraction fluorescent probe displaced, Screen (Acid 14): 0.26
fraction fluorescent probe displaced, Replicate (Acid 14): 0.22
Structure (SMILES): O=C1CCSSCCNC(=O)c2cccc(c2)CNC(=O)[C@H](Cc2c[nH]c3ccccc23)NC(=O)[C@H](CNC(=O)c2ccc(Cl)s2)N1 [X D3 W B5 Acid 14]

fraction fluorescent probe displaced, Screen (Acid 25): 0.35
fraction fluorescent probe displaced, Replicate (Acid 25): 0.28
Structure (SMILES): O=C1CCSSCCNC(=O)c2cccc(c2)CNC(=O)[C@H](Cc2c[nH]c3ccccc23)NC(=O)[C@H](CNC(=O)c2ccc(Cl)cc2)N1 [X D3 W B5 Acid 25]

fraction fluorescent probe displaced, Screen (Acid 91): 0.24
fraction fluorescent probe displaced, Replicate (Acid 91): 0.32
Structure (SMILES): O=C(/C=C/c1ccccc1)NC[C@@H]1NC(=O)CCSSCCNC(=O)c2cccc(c2)CNC(=O)[C@H](Cc2c[nH]c3ccccc23)NC1=O [X D3 W B5 Acid 91]

fraction fluorescent probe displaced, Screen (Acid 25): -0.07
fraction fluorescent probe displaced, Replicate (Acid 25): 0.12
Structure (SMILES): O=C(NC1CC2C(=O)N3CCCC3C(=O)NC(Cc3ccccc3)C(=O)NCCSSCCC(=O)N2C1)c1ccc(Cl)cc1 (centres unmarked) [X D5 B1 F Acid 25] ([Mpa][ξPro(4ξ-NHCOC6H4-4-Cl)]PF-Cysteamide; disulfide 1-C; configuration not given here)

fraction fluorescent probe displaced, Screen (Acid 14): 0.17
fraction fluorescent probe displaced, Replicate (Acid 14): 0.0465
Structure (SMILES): O=C(NC1CC2C(=O)N3CCCC3C(=O)NC(Cc3c[nH]c4ccccc34)C(=O)NCCSSCCC(=O)N2C1)c1ccc(Cl)s1 (centres unmarked) [X D5 B1 W Acid 14] ([Mpa][ξPro(4-NHCO(5-Cl-2-thienyl))]PW-Cysteamide; disulfide 1-C; configuration not given here)

fraction fluorescent probe displaced, Screen (Acid 25): 0.25
fraction fluorescent probe displaced, Replicate (Acid 25): 0.15
Structure (SMILES): O=C(NC1CC2C(=O)N3CCCC3C(=O)NC(Cc3c[nH]c4ccccc34)C(=O)NCCSSCCC(=O)N2C1)c1ccc(Cl)cc1 (centres unmarked) [X D5 B1 W Acid 25] ([Mpa][ξPro(4ξ-NHCOC6H4-4-Cl)]PW-Cysteamide; disulfide 1-C; configuration not given here)

fraction fluorescent probe displaced, Screen (Acid 91): 0.03
fraction fluorescent probe displaced, Replicate (Acid 91): 0.07
Structure (SMILES): O=C(/C=C/c1ccccc1)N[C@H]1C[C@H]2C(=O)N3CCC[C@H]3C(=O)N[C@@H](Cc3c[nH]c4ccccc34)C(=O)NCCSSCCC(=O)N2C1 [X D5 B1 W Acid 91] ([Mpa][Pro(cis-4-NH-(E)-Cinnamoyl)]PW-Cysteamide; disulfide 1-C)

fraction fluorescent probe displaced, Screen (Acid 14): -0.0337
fraction fluorescent probe displaced, Replicate (Acid 14): 0.07
Structure (SMILES): O=C1CCNC(=O)C2CC(NC(=O)c3ccc(Cl)s3)CN2C(=O)CCSSCCNC(=O)C(Cc2ccccc2)N1 (centres unmarked) [X D5 B2 F Acid 14]

fraction fluorescent probe displaced, Screen (Acid 25): 0.15
fraction fluorescent probe displaced, Replicate (Acid 25): 0.07
Structure (SMILES): O=C1CCNC(=O)C2CC(NC(=O)c3ccc(Cl)cc3)CN2C(=O)CCSSCCNC(=O)C(Cc2c[nH]c3ccccc23)N1 (centres unmarked) [X D5 B2 W Acid 25]

fraction fluorescent probe displaced, Screen (Acid 14): -0.06
fraction fluorescent probe displaced, Replicate (Acid 14): 0.0211
Structure (SMILES): O=C(NC1CC2C(=O)N3CCCC(C3)C(=O)NC(Cc3ccccc3)C(=O)NCCSSCCC(=O)N2C1)c1ccc(Cl)s1 (centres unmarked) [X D5 B4 F Acid 14]

fraction fluorescent probe displaced, Screen (Acid 14): 0.11
fraction fluorescent probe displaced, Replicate (Acid 14): 0.12
Structure (SMILES): O=C(NC1CC2C(=O)N3CCCC(C3)C(=O)NC(Cc3c[nH]c4ccccc34)C(=O)NCCSSCCC(=O)N2C1)c1ccc(Cl)s1 (centres unmarked) [X D5 B4 W Acid 14]

fraction fluorescent probe displaced, Screen (Acid 14): -0.0337
fraction fluorescent probe displaced, Replicate (Acid 14): 0.0465
Structure (SMILES): O=C1NC(Cc2ccccc2)C(=O)NCCSSCCC(=O)N2CC(NC(=O)c3ccc(Cl)s3)CC2C(=O)NCc2cccc1c2 (centres unmarked) [X D5 B5 F Acid 14]

fraction fluorescent probe displaced, Screen (Acid 25): -0.00813
fraction fluorescent probe displaced, Replicate (Acid 25): 0.15
Structure (SMILES): O=C(N[C@H]1C[C@H]2C(=O)NCc3cccc(c3)C(=O)N[C@@H](Cc3ccccc3)C(=O)NCCSSCCC(=O)N2C1)c1ccc(Cl)cc1 [X D5 B5 F Acid 25]

fraction fluorescent probe displaced, Screen (Acid 91): -0.05
fraction fluorescent probe displaced, Replicate (Acid 91): 0.07
Structure (SMILES): O=C(C=Cc1ccccc1)NC1CC2C(=O)NCc3cccc(c3)C(=O)NC(Cc3ccccc3)C(=O)NCCSSCCC(=O)N2C1 (centres unmarked) [X D5 B5 F Acid 91]

fraction fluorescent probe displaced, Screen (Acid 91): 0.00268
fraction fluorescent probe displaced, Replicate (Acid 91): 0.09
Structure (SMILES): O=C(/C=C/c1ccccc1)N[C@H]1C[C@H]2C(=O)NCc3cccc(c3)C(=O)N[C@@H](Cc3c[nH]c4ccccc34)C(=O)NCCSSCCC(=O)N2C1 [X D5 B5 W Acid 91]

fraction fluorescent probe displaced, Screen (Acid 14): 0.28
fraction fluorescent probe displaced, Replicate (Acid 14): 0.0465
Structure (SMILES): O=C(NC1CC2C(=O)NC(Cc3ccccc3)C(=O)N3CCCC3C(=O)NCCSSCCC(=O)N2C1)c1ccc(Cl)s1 (centres unmarked) [X D5 F B1 Acid 14] ([Mpa][ξPro(4-NHCO(5-Cl-2-thienyl))]FP-Cysteamide; disulfide 1-C; configuration not given here)

fraction fluorescent probe displaced, Screen (Acid 14): 0.08
fraction fluorescent probe displaced, Replicate (Acid 14): 0.0465
Structure (SMILES): O=C1CCNC(=O)C(Cc2ccccc2)NC(=O)C2CC(NC(=O)c3ccc(Cl)s3)CN2C(=O)CCSSCCN1 (centres unmarked) [X D5 F B2 Acid 14]
